# Assay: Thermal stability test of polyvinyl chloride sheet in Geer oven at 185° C. (Example 7 composition)
# Experimental: A heat stabilizer (acid-capturing agent) shown in Table 3 was mixed with the above components other than the heat stabilizer in the above amounts, and the mixture was uniformly mixed. Then, it was kneaded with an open roll for 3 minutes at 180° C., to prepare a sheet having a thickness of about 1 mm. The sheet was placed in a Geer oven set at 185° C., and it was estimated for a thermal stability. […] Concerning properties required for the heat stabilizer, the heat stabilizer was required to be nonpoisonous and a low price, to have good dispersibility, to be almost free from coloration, and to give a long period of time before blackening.
# In Example 7, the calcium hydroxide of the present invention as a heat stabilizer was replaced with a calcium hydroxide obtained by surface-treating a commercially available calcium hydroxide used in Comparative Example 1 (5-1), lead stearate (5-2), and A type zeolite (5-3). These cases were estimated.
sequence,measurement,value
A type zeolite [5-3],Thermal stability (period of time taken until the sheet was blackened),40 min
